From patent publication US20230277518A1, “NK RECEPTOR ANTAGONISTS FOR CANCER PATIENTS” (Acer Therapeutics Inc., priority 2020, published 2023)

Experiments:
[1] = human, in vivo; cited from earlier work
CYP3A4 = CYP3A4 (Homo sapiens, UniProt P08684); settings: liver; cited from earlier work
[2] = Two-compartment PK model of osanetant fit to the Sanofi single-dose study; set-up: species or system human; settings: two-compartment model parameter
Text: Osanetant (SR 142801) is an NK3 receptor antagonist originally identified by Sanofi. Patacchini R. et al. 1995, Eur J Pharmacol 278 (1):17-25; Nguyen-Le X. K. et al. 1996, Pharmacology 52 (5):283-91; Beaujouan J. C. et al. 1997, Eur J Pharmacol 319 (2-3):307-16; Emonds-Alt X. et al. 1995, Life Sci 56 (1):P127-32). Osanetant pharmacokinetics (PK) was derived from a Study Report by Sanofi describing concentration curves and PK summary data. A two-compartment PK model was derived from the data the concentration: time curves. […] A two-compartment pharmacokinetic model was fit to the single-dose study in the Sanofi Study report.

CYP2D6 = CYP2D6 (Homo sapiens, UniProt P10635); settings: cited from earlier work
[3] = animal study; cited from earlier work
[4] = oral dosing, set in the multiple-dose PK model; cited from earlier work

Chain of CYP2D6 (P10635 whole entry): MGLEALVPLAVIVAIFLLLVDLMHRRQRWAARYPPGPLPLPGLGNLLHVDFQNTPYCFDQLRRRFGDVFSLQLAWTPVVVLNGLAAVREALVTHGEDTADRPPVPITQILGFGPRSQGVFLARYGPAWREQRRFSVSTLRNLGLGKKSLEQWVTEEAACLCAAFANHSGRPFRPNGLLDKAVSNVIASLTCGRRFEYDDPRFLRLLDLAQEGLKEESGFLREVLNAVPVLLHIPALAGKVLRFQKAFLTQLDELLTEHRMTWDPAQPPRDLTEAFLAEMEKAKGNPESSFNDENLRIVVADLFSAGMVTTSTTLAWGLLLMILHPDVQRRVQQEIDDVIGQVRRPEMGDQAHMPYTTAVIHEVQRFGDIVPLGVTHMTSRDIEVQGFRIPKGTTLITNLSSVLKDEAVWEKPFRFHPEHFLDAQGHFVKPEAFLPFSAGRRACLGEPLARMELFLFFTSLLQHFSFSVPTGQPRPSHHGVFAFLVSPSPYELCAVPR
Chain of CYP3A4 (P08684 whole entry): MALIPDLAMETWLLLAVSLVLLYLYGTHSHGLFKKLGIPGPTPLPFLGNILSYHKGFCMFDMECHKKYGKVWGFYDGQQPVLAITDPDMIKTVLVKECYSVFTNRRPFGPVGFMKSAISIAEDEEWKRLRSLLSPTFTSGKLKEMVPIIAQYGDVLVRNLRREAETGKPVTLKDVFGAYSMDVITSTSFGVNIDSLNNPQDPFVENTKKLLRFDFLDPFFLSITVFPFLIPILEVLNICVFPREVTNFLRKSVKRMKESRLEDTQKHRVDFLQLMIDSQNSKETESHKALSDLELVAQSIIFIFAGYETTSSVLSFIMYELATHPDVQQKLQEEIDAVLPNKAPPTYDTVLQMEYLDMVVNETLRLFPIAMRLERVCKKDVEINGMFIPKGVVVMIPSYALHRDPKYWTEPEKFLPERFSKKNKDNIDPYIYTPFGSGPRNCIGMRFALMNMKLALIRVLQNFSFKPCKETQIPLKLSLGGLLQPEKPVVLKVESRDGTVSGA

Row | Blood_Liver_transport_k [2] [min⁻¹] | Q [2] [L/min] | Vol_central [2] [L] | Vol_periph [2] [L] | ka [2] [min⁻¹] | Structure (SMILES) | patients who experience increased frequency and/or duration of VMS [1] | clearance mechanism (CYP3A4) | CYP2D6 activity (CYP2D6) | Brain/plasma concentration [3] | Bioavailability [4] [%]
1 | – | – | – | – | – | CCNC(=O)[C@@H]1CCCN1C(=O)[C@H](CCCNC(=N)N)NC(=O)[C@H](CC(C)C)NC(=O)[C@@H](CC(C)C)NC(=O)[C@H](Cc1ccc(O)cc1)NC(=O)[C@H](CO)NC(=O)[C@H](Cc1c[nH]c2ccccc12)NC(=O)[C@H](Cc1c[nH]cn1)NC(=O)[C@@H]1CCC(=O)N1 [leuprolide] | about 80% | – | – | – | –
2 | 0.011 | 13.9 | 620 | 1768 | 0.039 | CC(=O)N(C)C1(c2ccccc2)CCN(CCC[C@]2(c3ccc(Cl)c(Cl)c3)CCCN(C(=O)c3ccccc3)C2)CC1 [osanetant, (R)—N-(1-(3-(1-benzoyl-3-(3,4-dichlorophenyl)piperidin-3-yl)propyl)-4-phenylpiperidin-4-yl)-N-methylacetamide] | – | CYP3A4 metabolism in the liver is the primary clearance mechanism | inhibits CYP2D6 activity | 0.8 | 40
